The source of these data is patent US9290476B2, “Methylene linked quinolinyl modulators of RORγt” (Janssen Pharmaceutica NV, priority 2012, dated 2016).

For assay [1], the target named is human RORγt ligand binding domain (RORγt LBD) (Homo sapiens (Human), UniProt P51449). In words: RORγt ThermoFluor assay (thermal shift binding affinity). The note with it: estimated from thermal shift. Summed up: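 Thermal shift used 0.065 mg/mL RORγt LBD with 60 μM 1,8-ANS in 100 mM Hepes pH 7.0, 10 mM NaCl, 2.5 mM GSH and 0.002% Tween-20, heated at 1 °C/min. Fluorescence was excited at 380–400 nm and emission read at 500 nm.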
Chain of human RORγt ligand binding domain (RORγt LBD) (P51449 other isoform, or with tags, fused parts or gaps): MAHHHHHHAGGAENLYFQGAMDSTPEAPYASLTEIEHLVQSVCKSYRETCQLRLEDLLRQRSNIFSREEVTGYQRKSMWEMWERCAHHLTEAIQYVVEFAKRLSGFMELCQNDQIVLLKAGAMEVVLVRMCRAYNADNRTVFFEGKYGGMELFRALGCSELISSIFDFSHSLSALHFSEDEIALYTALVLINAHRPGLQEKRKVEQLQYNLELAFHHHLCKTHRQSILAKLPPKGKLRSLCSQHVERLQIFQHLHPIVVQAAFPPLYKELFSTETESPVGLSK

A further assay has as its target human RORγt LBD (Homo sapiens (Human), UniProt P51449). Kind of assay: RORγt reporter assay (GAL4-RORγt LBD luciferase in HEK293T cells). The class given is cell-based. The note with it: for IC50: HEK293T cells, 24 hours compound treatment; for inhibition at 6 µM: HEK-293T, read-out: RORγt reporter Assay, % inhibition @ 6 μM, HEK293T cells, 6 μM. In outline:
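HEK293T cells transiently co-transfected with GAL4-DBD–wild-type human RORγt LBD (pBIND) and GAL4-responsive firefly luciferase reporter (pGL4.31); renilla luciferase from pBIND normalises transfection/viability. Cells in phenol-red-free DMEM, 5% lipid-reduced FCS, treated with compound 24 h. Firefly/renilla ratio plotted against compound concentration.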
On the technique in general: In a reporter assay the amount or activity of a reporter protein is the signal.

For assay [2], the system named is IL-17 production by CD4 T cells. In words: Human Th17 assay (IL-17 production by CD4 T cells under Th17 differentiation). It is filed as cell-based. The note with it: Homo sapiens, CD4+ T, 72 h, human CD4+ T cells, IL-17 after 3 days; read-out: Human Th17 Assay, IC50 μM. Summed up: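 Healthy-donor peripheral CD4+ T cells (1.5×10^5/well) preincubated 1 h with titrated compound (0.2% DMSO), then differentiated with anti-CD3/CD28 beads, anti-IL4, anti-IFNγ, IL1β, IL23, IL6, TGFβ and IL2 for 3 days at 37 °C. Supernatant IL-17 quantified by MSD electrochemiluminescence against a standard curve; IC50 fitted.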

Where a name gives a salt, the structure may show the parent alone.

Chain of human RORγt LBD (P51449 258-518): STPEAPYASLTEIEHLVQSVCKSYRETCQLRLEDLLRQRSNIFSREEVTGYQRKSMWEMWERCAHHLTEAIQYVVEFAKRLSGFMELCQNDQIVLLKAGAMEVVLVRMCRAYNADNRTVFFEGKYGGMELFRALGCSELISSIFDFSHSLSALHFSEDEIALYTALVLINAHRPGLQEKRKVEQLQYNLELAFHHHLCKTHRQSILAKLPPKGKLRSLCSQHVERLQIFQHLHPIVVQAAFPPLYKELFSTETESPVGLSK

As usually defined, the Kd is the equilibrium constant for the complex coming apart. What is called IC50 is the concentration that gives 50% inhibition. By inhibition is commonly meant the drop in the measured response relative to a control, in per cent. Consider `CN(C)c1ccc(C(O)(c2ccc3nc(Cl)c(Cc4ccc(-n5cccn5)cc4)c(Cl)c3c2)c2cncn2C)cc1` (centres unmarked) [Example 25, (3-(4-(1H-Pyrazol-1-yl)benzyl)-2,4-dichloroquinolin-6-yl)(4-(dimethylamino)phenyl)(1-methyl-1H-imidazol-5-yl)methanol.TFA], for which the equilibrium dissociation constant (Kd) in assay [1] is 440 nM. Also, at human RORγt LBD, 0.33 µM corresponded to half-maximal inhibition (IC50) and the inhibition at 6 µM was 87%. The IC50 in assay [2] worked out at 0.38 µM.
For `COc1nc2c(C)cc(C(O)(c3ccc(Cl)cc3)c3cncn3C)cc2c(Cl)c1Cc1ccc(-n2cccn2)cc1` (centres unmarked) [Example 28A, (3-(4-(1H-Pyrazol-1-yl)benzyl)-4-chloro-2-methoxy-8-methylquinolin-6-yl)(4-chlorophenyl)(1-methyl-1H-imidazol-5-yl)methanol.TFA], in that order: 53 nM, 0.18 µM, 100% and 0.2 µM.
The like results for `Cn1cncc1C(O)(c1ccc2nc(Cl)c(Cc3ccc(-n4cccn4)cc3)c(Cl)c2c1)c1cncn1C` [Example 30, (3-(4-(1H-Pyrazol-1-yl)benzyl)-2,4-dichloroquinolin-6-yl)bis(1-methyl-1H-imidazol-5-yl)methanol.TFA] were, in that order, 2.2 nM, 0.025 µM, 98% and 0.063 µM.
The like results for `COc1nc2ccc(C(O)(c3ccc(Cl)cc3)c3cncn3C)cc2c(Cl)c1Cc1ccc(S(C)(=O)=O)cc1` (centres unmarked) [Example 31, (4-Chloro-2-methoxy-3-(4-(methylsulfonyl)benzyl)quinolin-6-yl)(4-chlorophenyl)(1-methyl-1H-imidazol-5-yl)methanol.TFA] were, in that order, 64 nM, 0.19 µM, 103% and 0.28 µM.
For `OC(c1cccnc1)(c1cccc(Cl)c1)c1ccc2nc(Cl)c(Cc3cccs3)c(Cl)c2c1` (centres unmarked) [Example 32, (3-Chlorophenyl)(2,4-dichloro-3-(thiophen-2-ylmethyl)quinolin-6-yl)(pyridin-3-yl)methanol.TFA], the Kd in assay [1] is 33 nM. Also, the figures for the IC50 (at human RORγt LBD; in assay [2]) were 0.11 µM and 1.8 µM, respectively. Further, the inhibition at 6 µM at human RORγt LBD is 103%.
For `COc1nc2ccc(C(O)(c3ccc(Cl)cc3)c3cncn3C)cc2c(OC)c1Cc1ccc(-n2cccn2)cc1` (centres unmarked) [Example 34, (3-(4-(1H-Pyrazol-1-yl)benzyl)-2,4-dimethoxyquinolin-6-yl)(4-chlorophenyl)(1-methyl-1H-imidazol-5-yl)methanol.TFA], in that order: 250 nM, 0.46 µM, 1.8 µM and 101%.
For `COc1nc2ccc(C(O)(c3ccc(Cl)cc3)c3cncn3C)cc2c(Cl)c1Cc1cc2ccccc2s1` (centres unmarked) [Example 36A, (3-(Benzo[b]thiophen-2-ylmethyl)-4-chloro-2-methoxyquinolin-6-yl)(4-chlorophenyl)(1-methyl-1H-imidazol-5-yl)methanol], in that order: 40 nM, 0.18 µM, 0.1 µM and 98%.
For `COc1nc2ccc(C(O)(c3ccc(C(F)(F)F)nc3)c3cncn3C)cc2c(Cl)c1Cc1cc2ccccc2s1` (centres unmarked) [Example 37A, (3-(Benzo[b]thiophen-2-ylmethyl)-4-chloro-2-methoxyquinolin-6-yl)(1-methyl-1H-imidazol-5-yl)(6-(trifluoromethyl)pyridin-3-yl)methanol.TFA], in that order: 7.8 nM, 0.028 µM, 0.12 µM and 100%.
For `OC(c1ccc(Cl)cc1)(c1cccnc1)c1ccc2nc(Cl)c(Cc3ccc(-n4cccn4)cc3)c(Cl)c2c1` (centres unmarked) [Example 45, (3-(4-(1H-Pyrazol-1-yl)benzyl)-2,4-dichloroquinolin-6-yl)(4-chlorophenyl)(pyridin-3-yl)methanol], in assay [1], the Kd was 68 nM. Besides, on human RORγt LBD, the 50% inhibitory concentration (IC50) came to 0.13 µM and the inhibition at 6 µM was determined as 103%. The IC50 in assay [2] stood at 0.1 µM.
The like results for `COc1ccc(C(O)(c2cccnc2)c2ccc3nc(Cl)c(Cc4ccc(-n5cccn5)cc4)c(Cl)c3c2)cc1` (centres unmarked) [Example 47, (3-(4-(1H-Pyrazol-1-yl)benzyl)-2,4-dichloroquinolin-6-yl)(4-methoxyphenyl)(pyridin-3-yl)methanol] were, in that order, 140 nM, 0.17 µM, 102% and 0.18 µM.
The like results for `OC(c1cccnc1)(c1cccc(F)c1)c1ccc2nc(Cl)c(Cc3ccc(-n4cccn4)cc3)c(Cl)c2c1` (centres unmarked) [Example 48, (3-(4-(1H-Pyrazol-1-yl)benzyl)-2,4-dichloroquinolin-6-yl)(3-fluorophenyl)(pyridin-3-yl)methanol] were, in that order, 10 nM, 0.058 µM, 100% and 0.04 µM.
As for `COc1nc2ccc(C(O)(c3sc(C)nc3C)c3cnnn3C)cc2c(Cl)c1Cc1ccc(C(F)(F)F)cc1` (centres unmarked) [Example 79C, (4-Chloro-2-methoxy-3-(4-(trifluoromethyl)benzyl)quinolin-6-yl)(2,4-dimethylthiazol-5-yl)(1-methyl-1H-1,2,3-triazol-5-yl)methanol], in assay [1], the Kd was 0.024 nM. Also, at human RORγt LBD, the IC50 turned out to be 0.0025 µM and the inhibition at 6 µM stood at 94%. The concentration for half-maximal inhibition (IC50) in assay [2] worked out at 0.0015 µM.
The like results for `Cc1cc(C(O)(c2ccc(Cl)cc2)c2cncn2C)cc2c(Cl)c(Cc3ccc(-n4cccn4)cc3)c(Cl)nc12` (centres unmarked) [Example 85, (3-(4-(1H-Pyrazol-1-yl)benzyl)-2,4-dichloro-8-methylquinolin-6-yl)(4-chlorophenyl)(1-methyl-1H-imidazol-5-yl)methanol] were, in that order, 85 nM, 0.29 µM, 97% and 0.3 µM.
As to `COc1nc2ccc(C(O)(c3cnc(C)n3C)c3cnc(C)n3C)cc2c(Cl)c1Cc1ccc(C(F)(F)F)cc1` [Example 93, (4-Chloro-2-methoxy-3-(4-(trifluoromethyl)benzyl)quinolin-6-yl)bis(1,2-dimethyl-1H-imidazol-5-yl)methanol], the Kd in assay [1] is 0.017 nM. On human RORγt LBD, the IC50 is 0.16 µM and the inhibition at 6 µM is 87%. In assay [2], the half-maximal inhibitory concentration (IC50) amounted to 0.01 µM.
